Measured values reported in ChEMBL document CHEMBL4007440, “Development of the First Generation of Disulfide-Based Subtype-Selective and Potent Covalent Pyruvate Dehydrogenase Kinase 1 (PDK1) Inhibitors” (J Med Chem, 2017).
Active and inactive are the calls of the source. No cut-off for these calls is given here.

Key:
[1] = target: T1, [Pyruvate dehydrogenase (acetyl-transferring)] kinase isozyme 1, mitochondrial (Homo sapiens, UniProt Q15118); assay: Inhibition of PDK1 in human A549 cells assessed as reduction in phosphorylation of PDHE1 at S232 residue at 1 uM after 24 hrs by chemiluminescence/femtochemiluminescence method; assay type: cell-based
[2] = target: T1, [Pyruvate dehydrogenase (acetyl-transferring)] kinase isozyme 1, mitochondrial; assay: Inhibition of PDK1 in human A549 cells assessed as reduction in phosphorylation of PDHE1 at S293 residue at 10 uM after 24 hrs by chemiluminescence/femtochemiluminescence method; assay type: cell-based
[3] = target: T1, [Pyruvate dehydrogenase (acetyl-transferring)] kinase isozyme 1, mitochondrial; assay: Inhibition of PDK1 in human A549 cells assessed as reduction in phosphorylation of PDHE1 at S293 residue at 1 uM after 24 hrs by chemiluminescence/femtochemiluminescence method; assay type: cell-based
[4] = target: T1, [Pyruvate dehydrogenase (acetyl-transferring)] kinase isozyme 1, mitochondrial; assay: Inhibition of PDK1 in human A549 cells assessed as reduction in phosphorylation of PDHE1 at S232 residue at 10 uM after 24 hrs by chemiluminescence/femtochemiluminescence method; assay type: cell-based
[5] = target: T1, [Pyruvate dehydrogenase (acetyl-transferring)] kinase isozyme 1, mitochondrial; assay: Inhibition of full length His6-tagged PDK1 (unknown origin) expressed in Escherichia coli using full length His6-tagged PDHA1 as substrate after 30 mins by ELISA
[6] = target: T1, [Pyruvate dehydrogenase (acetyl-transferring)] kinase isozyme 1, mitochondrial; assay: Inhibition of full length His6-tagged PDK1 (unknown origin) expressed in Escherichia coli up to 10 uM using full length His6-tagged PDHA1 as substrate after 30 mins by ELISA
[7] = target: T1, [Pyruvate dehydrogenase (acetyl-transferring)] kinase isozyme 1, mitochondrial; assay: Ratio of Kinact to Ki for full length His6-tagged PDK1 (unknown origin) expressed in Escherichia coli
[8] = target: T1, [Pyruvate dehydrogenase (acetyl-transferring)] kinase isozyme 1, mitochondrial; assay: Inhibition of full length His6-tagged PDK1 (unknown origin) expressed in Escherichia coli assessed as inactivation rate using full length His6-tagged PDHA1 as substrate up to 45 mins by ELISA
[9] = target: T2, [Pyruvate dehydrogenase (acetyl-transferring)] kinase isozyme 4, mitochondrial (Homo sapiens, UniProt Q16654); assay: Inhibition of PDK4 (unknown origin) using full length His6-tagged PDHA1 as substrate after 30 mins by ELISA
Target sequence in this assay (Q16654 whole entry): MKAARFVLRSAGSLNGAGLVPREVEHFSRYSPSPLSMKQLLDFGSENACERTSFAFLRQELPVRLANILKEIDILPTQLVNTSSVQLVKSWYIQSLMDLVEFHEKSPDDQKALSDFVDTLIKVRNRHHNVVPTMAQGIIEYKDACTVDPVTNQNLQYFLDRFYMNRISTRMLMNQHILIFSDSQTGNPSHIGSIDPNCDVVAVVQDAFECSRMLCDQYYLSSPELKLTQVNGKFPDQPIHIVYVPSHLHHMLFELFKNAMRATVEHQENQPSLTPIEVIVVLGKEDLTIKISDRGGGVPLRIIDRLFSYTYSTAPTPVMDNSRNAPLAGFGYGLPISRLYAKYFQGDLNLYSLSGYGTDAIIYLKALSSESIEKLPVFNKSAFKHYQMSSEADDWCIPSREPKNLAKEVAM

[10] = target: T1, [Pyruvate dehydrogenase (acetyl-transferring)] kinase isozyme 1, mitochondrial; assay: Inhibition of full length His6-tagged PDK1 (unknown origin) expressed in Escherichia coli using full length His6-tagged PDHA1 as substrate in presence of GSH after 30 mins by ELISA
[11] = Antiproliferative activity against human Kelly cells after 72 hrs by CCK8 assay
[12] = Antiproliferative activity against human GM00637 cells after 72 hrs by CCK8 assay; assay type: cell-based; details: GM00637, 72 h
[13] = target: [Pyruvate dehydrogenase (acetyl-transferring)] kinase isozyme 3, mitochondrial (Homo sapiens, UniProt Q15120); assay: Inhibition of PDK3 (unknown origin) using full length His6-tagged PDHA1 as substrate after 30 mins by ELISA
L02 = assay: Antiproliferative activity against human LO2 cells after 72 hrs by CCK8 assay; assay type: cell-based; details: L02, 72 h
[14] = target: [Pyruvate dehydrogenase (acetyl-transferring)] kinase isozyme 2, mitochondrial (Homo sapiens, UniProt Q15119); assay: Inhibition of PDK2 (unknown origin) using full length His6-tagged PDHA1 as substrate after 30 mins by ELISA
A549 [15] = assay: Antitumor activity against human A549 cells xenografted in BALB/c nude mouse assessed as tumor growth inhibition at 40 mg/kg, ip for 21 days measured on day 21 post dose relative to control; assay type: functional; details: 504 h, read-out: TGI
[16] = target: T1, [Pyruvate dehydrogenase (acetyl-transferring)] kinase isozyme 1, mitochondrial; assay: Inhibition of PDK1 in human A549 cells assessed as reduction in phosphorylation of PDHE1 at S293 residue after 24 hrs by chemiluminescence/femtochemiluminescence method; assay type: cell-based
[17] = target: T1, [Pyruvate dehydrogenase (acetyl-transferring)] kinase isozyme 1, mitochondrial; assay: Inhibition of PDK1 in human A549 cells assessed as reduction in phosphorylation of PDHE1 at S232 residue after 24 hrs by chemiluminescence/femtochemiluminescence method; assay type: cell-based
[18] = target: T2, [Pyruvate dehydrogenase (acetyl-transferring)] kinase isozyme 4, mitochondrial; assay: Inhibition of PDK4 (unknown origin) at 10 uM using full length His6-tagged PDHA1 as substrate after 30 mins by ELISA
Target sequence in this assay (Q16654 whole entry, looked up): as the sequence (Q16654 whole entry) above

A549 [19] = assay: Antitumor activity against human A549 cells xenografted in BALB/c nude mouse assessed as tumor growth inhibition at 80 mg/kg, ip for 21 days measured on day 21 post dose relative to control; assay type: functional; details: 504 h, read-out: TGI
A549 [20] = assay: cells; details: Homo sapiens, A549, 72 h
Description: Antiproliferative activity against human A549 cells after 72 hrs by CCK8 assay

[21] = target: T1, [Pyruvate dehydrogenase (acetyl-transferring)] kinase isozyme 1, mitochondrial; assay: Inhibition of PDK1 in human A549 cells assessed as reduction in extracellular acidification rate after 24 hrs by fluorescent biosensor based assay; assay type: cell-based
[22] = target: T1, [Pyruvate dehydrogenase (acetyl-transferring)] kinase isozyme 1, mitochondrial; assay: Inhibition of PDK1 in human A549 cells assessed as increase in reactive oxygen species after 24 hrs by dihydroethidium staining based FACS analysis; assay type: cell-based

T1 sequence (Q15118 whole entry): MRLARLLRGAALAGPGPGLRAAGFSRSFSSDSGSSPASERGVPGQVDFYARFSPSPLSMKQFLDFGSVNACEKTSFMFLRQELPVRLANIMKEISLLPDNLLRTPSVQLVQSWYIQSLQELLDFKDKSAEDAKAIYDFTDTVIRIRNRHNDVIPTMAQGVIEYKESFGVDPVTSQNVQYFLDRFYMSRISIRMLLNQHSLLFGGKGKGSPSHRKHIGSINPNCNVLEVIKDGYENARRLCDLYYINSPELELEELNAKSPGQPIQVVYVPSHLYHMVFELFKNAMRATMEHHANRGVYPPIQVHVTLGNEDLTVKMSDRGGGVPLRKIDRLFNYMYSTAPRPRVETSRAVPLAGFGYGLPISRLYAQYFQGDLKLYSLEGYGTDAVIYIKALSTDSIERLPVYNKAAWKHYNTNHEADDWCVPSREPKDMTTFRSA
Sequence of [Pyruvate dehydrogenase (acetyl-transferring)] kinase isozyme 3, mitochondrial (Q15120 whole entry): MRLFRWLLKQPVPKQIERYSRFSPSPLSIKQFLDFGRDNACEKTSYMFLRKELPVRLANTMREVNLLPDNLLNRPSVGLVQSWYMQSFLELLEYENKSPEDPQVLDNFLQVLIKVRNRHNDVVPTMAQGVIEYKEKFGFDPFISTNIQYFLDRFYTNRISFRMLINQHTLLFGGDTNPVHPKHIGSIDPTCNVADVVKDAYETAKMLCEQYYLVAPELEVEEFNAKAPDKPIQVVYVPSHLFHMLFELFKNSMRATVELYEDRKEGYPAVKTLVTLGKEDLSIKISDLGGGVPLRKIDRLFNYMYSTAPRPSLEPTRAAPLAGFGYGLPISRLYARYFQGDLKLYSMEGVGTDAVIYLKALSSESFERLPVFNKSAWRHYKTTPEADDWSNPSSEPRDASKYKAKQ

CC1CN(C(=S)SSC(=S)N2CCOC(C)C2)CCO1 (centres undefined)
inhibition [1]: Active
inhibition [2]: Active
inhibition [3]: Active
inhibition [4]: Active
IC50 [5]: 0.096 µM

CC1(C)CCc2nc(SSc3nc4c(s3)CC(C)(C)CC4)sc2C1
IC50 [5]: 0.218 µM

CCOC(=O)C1CCc2nc(SSc3nc4c(s3)CC(C(=O)OCC)CC4)sc2C1 (centres undefined)
IC50 [5]: 0.109 µM

COC[C@H]1COCCN1C(=S)SSC(=S)N1CCOC[C@@H]1COC
IC50 [5]: 0.03 µM
Ki [5]: 0.12 µM

Sc1nc2ccccc2s1
inhibition [6]: inactive

OCCOCC1CN(C(=S)SSC(=S)N2CCCOC(COCCO)C2)CCCO1 (centres undefined)
IC50 [5]: 6.83 µM

O=[N+]([O-])c1ccc2nc(SSc3nc4ccc([N+](=O)[O-])cc4s3)sc2c1
IC50 [5]: 0.161 µM

C1CCc2sc(SSc3nc4c(s3)CCCC4)nc2C1
IC50 [5]: 0.09 µM

OCC1CN(C(=S)SSC(=S)N2CCCOC(CO)C2)CCCO1 (centres undefined)
IC50 [5]: 2.85 µM

CC1CCc2nc(SSc3nc4c(s3)CC(C)CC4)sc2C1 (centres undefined)
IC50 [5]: 0.119 µM

Cc1ccc(OCC2CN(C(=S)SSC(=S)N3CCOC(COc4ccc(C)cc4)C3)CCO2)cc1 (centres undefined)
IC50 [5]: 2.41 µM

OC[C@@H]1COCCN1C(=S)SSC(=S)N1CCOC[C@H]1CO
Ratio [7]: 0.54 ×10³ /M/s
Kinact [8]: 3.24 ×10⁻⁴ /s
IC50 [5]: 2.44 µM
Ki [5]: 4.03 µM

COC(=O)C1CN(C(=S)SSC(=S)N2CCOC(C(=O)OC)C2)CCO1 (centres undefined)
inhibition [1]: Active
inhibition [2]: Active
inhibition [3]: Active
inhibition [4]: Active
IC50 [5]: 0.085 µM

CN(C)C(=O)OCC1CN(C(=S)SSC(=S)N2CCCOC(COC(=O)N(C)C)C2)CCCO1 (centres undefined)
IC50 [5]: 1.46 µM

CCOCC1CN(C(=S)SSC(=S)N2CCOC(COCC)C2)CCO1 (centres undefined)
IC50 [5]: 0.101 µM

COCC1CN(C(=S)SSC(=S)N2CCOC(COC)C2)CCO1 (centres undefined)
inhibition [1]: Active
inhibition [2]: Active
inhibition [3]: Active
inhibition [4]: Active
IC50 [5]: 0.09 µM

O=C(O)C(Cl)Cl [DICHLOROACETIC ACID]
IC50 [9]: 727 µM
inhibition [10]: Active
IC50 [11]: 11100 µM
IC50 [12]: 13800 µM
IC50 [13]: 5560 µM
IC50 (L02): > 15000 µM
IC50 [14]: 504 µM

c1csc(SSc2nccs2)n1
Ratio [7]: 1.53 ×10³ /M/s
Kinact [8]: 56.5 ×10⁻⁴ /s
IC50 [5]: 0.326 µM
Ki [5]: 3.73 µM

COC[C@@H]1COCCN1C(=S)SSC(=S)N1CCOC[C@H]1COC
inhibition in vivo at 40 mg/kg (A549 [15]): 11%
inhibition [1]: Active
inhibition [16]: Dose-dependent effect
inhibition [17]: Dose-dependent effect
inhibition [2]: Active
inhibition [10]: inactive
inhibition [3]: Active
IC50 [11]: 1.43 µM
IC50 [12]: > 10 µM
inhibition [18]: inactive
inhibition in vivo at 80 mg/kg (A549 [19]): 20%
Ki [13]: 2.99 µM
IC50 (A549 [20]): 0.957 µM
inhibition [4]: Active
inhibition [21]: Dose-dependent effect
IC50 (L02): > 10 µM
inhibition [22]: Dose-dependent effect
IC50 [5]: 0.024 µM
Ki [5]: 0.11 µM
Ki [14]: 0.702 µM

CC(=O)OCC1CN(C(=S)SSC(=S)N2CCOC(COC(C)=O)C2)CCO1 (centres undefined)
inhibition [1]: Active
inhibition [2]: Active
inhibition [3]: Active
inhibition [4]: Active
IC50 [5]: 0.113 µM

CCCCCCCCCCOCC1CN(C(=S)SSC(=S)N2CCCOC(COCCCCCCCCCC)C2)CCCO1 (centres undefined)
IC50 [5]: > 10 µM

O=C(O)C1CCc2nc(SSc3nc4c(s3)CC(C(=O)O)CC4)sc2C1 (centres undefined)
IC50 [5]: 0.13 µM

S=C(SSC(=S)N1CCOC(COc2cccc3ccccc23)C1)N1CCOC(COc2cccc3ccccc23)C1 (centres undefined)
Ratio [7]: 0.03 ×10³ /M/s
Kinact [8]: 6.9 ×10⁻⁴ /s
IC50 [5]: 3.87 µM
Ki [5]: 22.6 µM
